Reference: patent US5922775A, “Method of treating malignant tumors with ketone thyroxine analogues having no significant hormonal activity” (priority 1997, dated 1999)
Entries after “also recorded” stand apart in the source; their conditions may differ.

Experiments:
[1] = test system: cellular esterases; assay: Stability against cellular esterases
From the text: Moreover, amide analogs of DIME, having an NH2 or a substituted amino group, may be subject to hydrolysis catalyzed by cellular amidases. Since the hydrolysis product of such a hydrolysis is a carboxylic acid, the same decrease in efficacy can result. In order to decrease the chemical lability in the DIME pharmacophore structure, ketone analogues of DIME may be used.
A more detailed kinetic comparison of DIME, DIPE and DIPP on the kinetics of MTP assembly, in a concentration range of zero to 10 μM drug and a louvered GTP concentration (10 μM), is shown in FIG. 3.

[2] = test system: human mammary cancer cells (MDA-MB-231); settings: 1 mM DIME [sic]; within 18 hours; cited from earlier work
[3] = test system: human cancer cells; settings: cited from earlier work
[4] = test system: malignant tumors; settings: cited from earlier work

## COC(=O)c1cc(I)c(Oc2ccc(OC)cc2)c(I)c1 [DIME, methyl 3,5-diiodo-4-(4'-methoxyphenoxy)benzoate]
[1]
  stability against esterases: labile with respect to hydrolysis catalyzed by cellular esterases
[2]
  abnormal spindle structures: induced abnormal spindle structures
[3]; cellular assays and in vivo
  cytostatic / cytocidal activity: highly active both in cellular assays and in vivo
[3]
  growth inhibition of malignant cell types: inhibit the growth of a variety of malignant cell types
  tumor cell apoptosis: induce tumor cell apoptosis preceded by micronucleation
  tumoricidal activity in cell cultures: potential tumoricidal agent both in cell cultures and in vivo
[4]
  anti-tumor activity in vivo: potential tumoricidal agent both in cell cultures and in vivo; also recorded: highly active both in cellular assays and in vivo
